Substitutions are numbered along the chain they refer to.
Columns and labels:
Parameters in all cases: WT (1–553); expressed in transfected cells
GLP-2R Y182^1.43A = biological target: T1, GLP-2R Y182^1.43A (Homo sapiens, UniProt O95838, Y182A); test: radioligand competition binding, Y182^1.43A; conditions: COS-7, Y182^1.43A; [^125I]GLP-2(1–33, M10Y) 10–15 pM, 4 h, 4 °C; mean ± SEM, n ≥ 3 in duplicate
T1 sequence (O95838 1-553 Y182A): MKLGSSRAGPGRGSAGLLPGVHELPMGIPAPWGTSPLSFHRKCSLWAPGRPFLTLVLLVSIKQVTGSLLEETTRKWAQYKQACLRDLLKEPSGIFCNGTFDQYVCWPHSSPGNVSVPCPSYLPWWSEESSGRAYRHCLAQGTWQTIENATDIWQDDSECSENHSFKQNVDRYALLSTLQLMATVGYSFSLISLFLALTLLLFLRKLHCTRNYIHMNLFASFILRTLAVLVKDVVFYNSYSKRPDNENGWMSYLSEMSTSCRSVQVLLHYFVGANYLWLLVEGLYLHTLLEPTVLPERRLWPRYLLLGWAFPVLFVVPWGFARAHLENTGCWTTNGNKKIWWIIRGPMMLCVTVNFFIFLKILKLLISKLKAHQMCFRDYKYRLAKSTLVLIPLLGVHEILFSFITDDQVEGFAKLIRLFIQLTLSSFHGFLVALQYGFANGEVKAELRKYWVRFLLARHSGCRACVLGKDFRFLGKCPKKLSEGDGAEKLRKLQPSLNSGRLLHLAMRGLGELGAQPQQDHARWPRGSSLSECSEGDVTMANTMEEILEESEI
Method: (§1) A stepwise oxidation reaction was performed by addition of 6 aliquots of 5 µL ChloramineT (30 µL/mL) with a 1-min interval during constant stirring. The reaction was terminated by the addition of 400 µL phase A (0.1% trifluoracetic acid) before being fractionated into 1 mL volume by reverse-phase high-performance liquid chromatography (RP-HPLC, Waters 600 SimiPrep system) on a C18 column. The iodinated protein was […] by increasing concentrations of phase B (Acetonitrile + 0.1% TFA) and tested for competitive binding ability.
(§2) One day before transfection, the COS-7 cells were seeded in 75 cm^2 culture flasks (3 million cells/flask) in DMEM, containing 3.9 g/L NaHCO3 and supplemented with 10% FBS, 1% L-glutamine, 180 units/mL penicillin and 45 µg/mL streptomycin. After an overnight culture at 37 °C, 10% CO2 and 95% air humidity, the cells were transiently transfected with different GLP-2R constructs or pcDNA3.1 vector as previously described.[52] Following 24-h incubation, the cells were transferred to Costa® microtiter plates (150,000 cells/well, PerkinElmer) to achieve a 5%–10% specific binding. […] The cells were then washed twice in binding buffer (4 °C), lysed and counted for radioactivity using a Wallac Gamma Counter (PerkinElmer).

GLP-2R Y186^1.47A = biological target: T2, GLP-2R Y186^1.47A (Homo sapiens, UniProt O95838, Y186A); test: radioligand competition binding, Y186^1.47A; conditions: COS-7, Y186^1.47A; [^125I]GLP-2(1–33, M10Y) 10–15 pM, 4 h, 4 °C; n ≥ 3 in duplicate
T2 sequence (O95838 1-553 Y186A): T1 sequence (O95838 1-553 Y182A) with A182Y, Y186A
Method: as §1, §2

GLP-2R N247^ECL1A = biological target: T3, GLP-2R N247^ECL1A (Homo sapiens, UniProt O95838, N247A); test: radioligand competition binding, N247^ECL1A; conditions: COS-7, N247^ECL1A; [^125I]GLP-2(1–33, M10Y) 10–15 pM, 4 h, 4 °C; mean ± SEM, n ≥ 3 in duplicate
T3 sequence (O95838 1-553 N247A): T1 sequence (O95838 1-553 Y182A) with A182Y, N247A
Method: as §1, §2

Compound | % Binding of WT (GLP-2R Y182^1.43A) | % Binding of WT (GLP-2R Y186^1.47A) | % Binding of WT (GLP-2R N247^ECL1A)
CC[C@H](C)[C@H](NC(=O)[C@H](Cc1ccccc1)NC(=O)[C@H](CC(=O)O)NC(=O)[C@H](CCCNC(=N)N)NC(=O)[C@H](C)NC(=O)[C@H](C)NC(=O)[C@H](CC(C)C)NC(=O)[C@H](CC(N)=O)NC(=O)[C@H](CC(=O)O)NC(=O)[C@H](CC(C)C)NC(=O)[C@@H](NC(=O)[C@@H](NC(=O)[C@H](CC(N)=O)NC(=O)[C@H](CCSC)NC(=O)[C@H](CCC(=O)O)NC(=O)[C@H](CC(=O)O)NC(=O)[C@H](CO)NC(=O)[C@H](Cc1ccccc1)NC(=O)[C@H](CO)NC(=O)CNC(=O)[C@H](CC(=O)O)NC(=O)[C@H](C)NC(=O)[C@@H](N)Cc1c[nH]cn1)[C@@H](C)O)[C@@H](C)CC)C(=O)N[C@@H](CC(N)=O)C(=O)N[C@@H](Cc1c[nH]c2ccccc12)C(=O)N[C@@H](CC(C)C)C(=O)N[C@H](C(=O)N[C@@H](CCC(N)=O)C(=O)N[C@H](C(=O)N[C@@H](CCCCN)C(=O)N[C@H](C(=O)N[C@H](C(=O)N[C@@H](CC(=O)O)C(=O)O)[C@@H](C)O)[C@@H](C)CC)[C@@H](C)O)[C@@H](C)CC [Human GLP-2 (1–33)] | 3.4 ± 1.0 % | N.B. | 130.7 ± 4.5 %
CC[C@H](C)[C@H](NC(=O)[C@H](Cc1ccccc1)NC(=O)[C@H](CC(=O)O)NC(=O)[C@H](CCCNC(=N)N)NC(=O)[C@H](C)NC(=O)[C@H](C)NC(=O)[C@H](CC(C)C)NC(=O)[C@H](CC(N)=O)NC(=O)[C@H](CC(=O)O)NC(=O)[C@H](CC(C)C)NC(=O)[C@@H](NC(=O)[C@@H](NC(=O)[C@H](CC(N)=O)NC(=O)[C@H](CCSC)NC(=O)[C@H](CCC(=O)O)NC(=O)[C@H](CC(=O)O)NC(=O)[C@H](CO)NC(=O)[C@H](Cc1ccccc1)NC(=O)[C@H](CO)NC(=O)CNC(=O)[C@H](CC(=O)O)NC(=O)CNC(=O)[C@@H](N)Cc1c[nH]cn1)[C@@H](C)O)[C@@H](C)CC)C(=O)N[C@@H](CC(N)=O)C(=O)N[C@@H](Cc1c[nH]c2ccccc12)C(=O)N[C@@H](CC(C)C)C(=O)N[C@H](C(=O)N[C@@H](CCC(N)=O)C(=O)N[C@H](C(=O)N[C@@H](CCCCN)C(=O)N[C@H](C(=O)N[C@H](C(=O)N[C@@H](CC(=O)O)C(=O)O)[C@@H](C)O)[C@@H](C)CC)[C@@H](C)O)[C@@H](C)CC [Teduglutide] | 3.2 ± 1.3 % | N.B. | 135.2 ± 4.4 %

From paper PMC7785020, “A unique hormonal recognition feature of the human glucagon-like peptide-2 receptor” (Cell Research, 2020)
